Data reported in paper PMC3292552, “Post-Translational Regulation and Trafficking of the Granulin-Containing Protease RD21 of Arabidopsis thaliana” (PLoS ONE, 2012).

Columns and labels:
RD21 [1] = molecular target: T1, RD21 (Arabidopsis thaliana, UniProt P43297, C161A); assay: competition of DCG-04 labelling; type: biochemical; details: 20 µM E-64 preincubation, 0.2 µM DCG-04, pH 6; catalytic Cys absent; leaf extract
T1 construct: gene RD21A; full-length preproprotein agroinfiltrated in Nicotiana benthamiana, two (pRH628) or three (pRH629) extra C-terminal Ser; crude leaf extract; processed in planta to iRD21/mRD21; mRD21 N-termini DELPE, LPE, GDELPE; also endogenous in Arabidopsis leaf extract

RD21 [2] = molecular target: T2, RD21 (Arabidopsis thaliana, UniProt P43297); assay: competition of DCG-04 labelling; protection of rubisco from degradation; type: biochemical; details: covalent; 20 µM E-64 preincubation, 0.2 µM DCG-04, pH 6, 1 mM DTT; leaf extract
T2 construct: gene RD21A; full-length preproprotein agroinfiltrated in Nicotiana benthamiana, two (pRH628) or three (pRH629) extra C-terminal Ser; crude leaf extract; processed in planta to iRD21/mRD21; mRD21 N-termini DELPE, LPE, GDELPE; also endogenous in Arabidopsis leaf extract
T2 sequence (P43297 137-462): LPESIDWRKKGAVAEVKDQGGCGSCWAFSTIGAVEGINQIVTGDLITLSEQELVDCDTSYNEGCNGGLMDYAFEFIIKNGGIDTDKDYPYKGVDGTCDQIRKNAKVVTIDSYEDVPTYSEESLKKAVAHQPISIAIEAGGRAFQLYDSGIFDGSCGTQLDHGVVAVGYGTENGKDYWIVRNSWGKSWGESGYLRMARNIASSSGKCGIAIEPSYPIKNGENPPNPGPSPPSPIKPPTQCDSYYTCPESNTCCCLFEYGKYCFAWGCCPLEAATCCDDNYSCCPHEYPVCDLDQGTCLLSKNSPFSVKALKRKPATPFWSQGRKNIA

T1 sequence (P43297 137-462 C161A): as the sequence (P43297 137-462) above, with C25A counted along it

CC(C)C[C@H](NC(=O)[C@H]1O[C@@H]1C(=O)O)C(=O)NCCCCNC(=N)N [E-64]
competition of DCG-04 labelling (RD21 [1]): a weak, E-64-competable biotinylation occurs of iRD21 | competition of DCG-04 labelling; protection of rubisco from degradation (RD21 [2]): the reaction with DCG-04 can be prevented by preincubation with E-64
